Assay results reported in US20160287589A1, “SUBSTITUTED-IMIDAZOPYRIDAZINES” (BAYER PHARMA AKTIENGESELLSCHAFT, priority 2013, published 2016).

Key:
[1] = biological target: T1, MKNK1 (Homo sapiens, UniProt Q9BUB5, T385D); experiment: MKNK1 kinase assay (MKNK1 TR-FRET assay); format: biochemical; settings: Table 1b; 10 μM ATP, 15 min preincubation
T1 construct: GST (N); purchased Carna Biosciences 02-145; host or cells: insect cells (baculovirus expression system)

[2] = biological target: T1, MKNK1; experiment: MKNK1 kinase high ATP assay (TR-FRET-based); format: biochemical; settings: Table 2b; 2 mM ATP, 15 min preincubation
Procedure, shortened: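 GST-tagged full-length human MKNK1 (aa 1-424, T344D) from insect cells, preincubated with compound 15 min at 22 °C. Reaction 30 min at 22 °C with 2 mM ATP and 0.06 μM biotinylated peptide in HEPES pH 7.5, Mg2+, DTT. Phosphopeptide detected by TR-FRET (665/622 ratio) with anti-pS6 (pSer236) antibody; normalised to no-inhibitor and no-enzyme controls.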

T1 sequence (Q9BUB5 1-424 isoform Q9BUB5-2 T344D): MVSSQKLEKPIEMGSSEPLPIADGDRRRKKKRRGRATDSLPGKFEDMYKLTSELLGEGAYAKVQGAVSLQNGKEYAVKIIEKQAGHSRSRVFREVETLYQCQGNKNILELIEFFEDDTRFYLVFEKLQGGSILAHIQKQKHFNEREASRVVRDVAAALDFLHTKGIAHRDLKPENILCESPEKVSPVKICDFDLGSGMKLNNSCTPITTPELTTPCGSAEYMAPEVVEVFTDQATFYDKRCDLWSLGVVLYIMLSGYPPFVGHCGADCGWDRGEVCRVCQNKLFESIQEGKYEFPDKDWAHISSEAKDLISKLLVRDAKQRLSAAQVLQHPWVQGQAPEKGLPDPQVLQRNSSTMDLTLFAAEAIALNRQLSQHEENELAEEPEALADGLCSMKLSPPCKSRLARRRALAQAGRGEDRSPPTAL

SMILES | IC50 [1] | IC50 [2]
COc1ccc2ncc(-c3cc4c(N5CCNCC5)cccc4o3)n2n1 [II-21, 6-Methoxy-3-[4-(piperazin-1-yl)-1-benzofuran-2-yl]imidazo[1,2-b]pyridazine] | 0.3 nM | 0.3 nM
COc1ccc2ncc(-c3cc4c(N5CCN(c6ccccc6)CC5)cccc4o3)n2n1 [II-22, 6-Methoxy-3-[4-(4-phenylpiperazin-1-yl)-1-benzofuran-2-yl]imidazo[1,2-b]-pyridazine] | 371 nM | 422 nM
CCN(CCOC)c1cccc2oc(-c3cnc4ccc(OCCCS(C)(=O)=O)nn34)cc12 [II-23, N-Ethyl-N-(2-methoxyethyl)-2-{6-[3-(methylsulfonyl)propoxy]imidazo[1,2-b]-pyridazin-3-yl}-1-benzofuran-4-amine] | 2 nM | 1.9 nM
CCN(CCOC)c1cccc2oc(-c3cnc4ccc(OC[C@H](C)N)nn34)cc12 [II-24, 2-(6-{[(2S)-2-Aminopropyl]oxy}imidazo[1,2-b]pyridazin-3-yl)-N-ethyl-N-(2-methoxyethyl)-1-benzofuran-4-amine] | 3.3 nM | 3.2 nM
COC[C@H]1CCCN1c1cccc2oc(-c3cnc4ccc(OC[C@@H](C)N)nn34)cc12 [II-26, (2R)-1-[(3-{4-[(2R)-2-(Methoxymethyl)pyrrolidin-1-yl]-1-benzofuran-2-yl}imidazo[1,2-b]pyridazin-6-yl)oxy]propan-2-amine] | 0.8 nM | 0.8 nM
COc1ccc2ncc(-c3cc4c(N5CCNC[C@@H]5C)cccc4o3)n2n1 [II-28, 6-methoxy-3-{4-[(2S)-2-methylpiperazin-1-yl]-1-benzofuran-2-yl}imidazo[1,2-b]pyridazine] | 5.1 nM | 0.7 nM
C[C@H]1CNCCN1c1cccc2oc(-c3cnc4ccc(OCC(F)(F)F)nn34)cc12 [II-29, 3-{4-[(2S)-2-methylpiperazin-1-yl]-1-benzofuran-2-yl}-6-(2,2,2-trifluoroethoxy)im-idazo[1,2-b]pyridazine] | 5.4 nM | 2.7 nM
C[C@H](N)COc1ccc2ncc(-c3cc4c(N5CCOC[C@@H]5C)cccc4o3)n2n1 [II-31, (2S)-1-[(3-{4-[(3S)-3-methylmorpholin-4-yl]-1-benzofuran-2-yl}imidazo[1,2-b]pyridazin-6-yl)oxy]propan-2-amine] | 24.2 nM | 35.5 nM
C[C@H]1COCCN1c1cccc2oc(-c3cnc4ccc(O[C@H]5C[C@H](N)C5)nn34)cc12 [II-34, trans-3-[(3-{4-[(3S)-3-methylmorpholin-4-yl]-1-benzofuran-2-yl}imidazo[1,2-b]pyridazin-6-yl)oxy]cyclobutanamine] | 26.7 nM | 43.2 nM
C[C@@H](N)COc1ccc2ncc(-c3cc4c(N5CCOC(C)(C)C5)cccc4o3)n2n1 [II-35, (2R)-1-({3-[4-(2,2-dimethylmorpholin-4-yl)-1-benzofuran-2-yl]imidazo[1,2-b]pyridazin-6-yl}oxy)propan-2-amine] | 16.7 nM | 49.6 nM
C[C@@H]1COCCN1c1cccc2oc(-c3cnc4ccc(OC[C@@H](C)N)nn34)cc12 [II-37, (2R)-1-[(3-{4-[(3R)-3-methylmorpholin-4-yl]-1-benzofuran-2-yl}imidazo[1,2-b]pyridazin-6-yl)oxy]propan-2-amine] | 43.9 nM | 69.1 nM
C[C@H]1CN(c2cccc3oc(-c4cnc5ccc(O[C@H]6C[C@H](N)C6)nn45)cc23)CCO1 [II-43, trans-3-[(3-{4-[(2S)-2-methylmorpholin-4-yl]-1-benzofuran-2-yl}imidazo[1,2-b]pyridazin-6-yl)oxy]cyclobutanamine] | 21.7 nM | 37.5 nM
COc1ccc2ncc(-c3cc4c(N5CCNC[C@H]5C)cccc4o3)n2n1 [II-44, 6-methoxy-3-{4-[(2R)-2-methylpiperazin-1-yl]-1-benzofuran-2-yl}imidazo[1,2-b]pyridazine] | 2.9 nM | 3.8 nM
C[C@@H]1CNCCN1c1cccc2oc(-c3cnc4ccc(OCCCS(C)(=O)=O)nn34)cc12 [II-45, 3-{4-[(2R)-2-methylpiperazin-1-yl]-1-benzofuran-2-yl}-6-[3-(methylsulfonyl)pro-poxy]imidazo[1,2-b]pyri-dazine] | 5.7 nM | 5.9 nM

More lines, now with the values ahead:

IC50 [1] | IC50 [2] | SMILES
0.4 nM | 0.4 nM | CN1CCN(c2cccc3oc(-c4cnc5ccc(OC[C@H]6CCC(=O)N6)nn45)cc23)CC1 [II-18, (5R)-5-[({3-[4-(4-Methylpiperazin-1-yl)-1-benzofuran-2-yl]imidazo[1,2-b]-pyridazin-6-yl}oxy)methyl]pyrrolidin-2-one]
0.4 nM | 0.4 nM | O=C1CC[C@H](COc2ccc3ncc(-c4cc5c(N6CCNCC6)cccc5o4)n3n2)N1 [II-19, (5R)-5-[({3-[4-(Piperazin-1-yl)-1-benzofuran-2-yl]imidazo[1,2-b]pyridazin-6-yl}-oxy)methyl]pyrrolidin-2-one]
0.5 nM | 0.8 nM | CS(=O)(=O)CCCOc1ccc2ncc(-c3cc4c(N5CCNCC5)cccc4o3)n2n1 [II-20, 6-[3-(Methylsulfonyl)propoxy]-3-[4-(piperazin-1-yl)-1-benzofuran-2-yl]imidazo-[1,2-b]pyridazine]
2.2 nM | 5.7 nM | C[C@H]1CN(c2cccc3oc(-c4cnc5ccc(OC[C@H]6CCC(=O)N6)nn45)cc23)CCO1 [II-27, (5R)-5-{[(3-{4-[(2S)-2-methylmorpholin-4-yl]-1-benzofuran-2-yl}imidazo[1,2-b]pyridazin-6-yl)oxy]methyl}pyrrolidin-2-one]
2.3 nM | 0.6 nM | C[C@H]1CNCCN1c1cccc2oc(-c3cnc4ccc(OC[C@H]5CCC(=O)N5)nn34)cc12 [II-30, (5R)-5-{[(3-{4-[(2S)-2-methylpiperazin-1-yl]-1-benzofuran-2-yl}imidazo[1,2-b]pyridazin-6-yl)oxy]methyl}pyrrolidin-2-one]
4.4 nM | 8.1 nM | C[C@H]1COCCN1c1cccc2oc(-c3cnc4ccc(OC[C@H]5CCC(=O)N5)nn34)cc12 [II-32, (5R)-5-{[(3-{4-[(3S)-3-methylmorpholin-4-yl]-1-benzofuran-2-yl}imidazo[1,2-b]pyridazin-6-yl)oxy]methyl}pyrrolidin-2-one]
16.3 nM | 24.4 nM | C[C@H]1COCCN1c1cccc2oc(-c3cnc4ccc(OC[C@@H]5CCC(=O)N5)nn34)cc12 [II-33, (5S)-5-{[(3-{4-[(3S)-3-methylmorpholin-4-yl]-1-benzofuran-2-yl}imidazo[1,2-b]pyridazin-6-yl)oxy]methyl}pyrrolidin-2-one]
2.3 nM | 1 nM | CC1(C)CN(c2cccc3oc(-c4cnc5ccc(OC[C@@H]6CCC(=O)N6)nn45)cc23)CCN1 [II-36, (5S)-5-[({3-[4-(3,3-dimethylpiperazin-1-yl)-1-benzofuran-2-yl]imidazo[1,2-b]pyridazin-6-yl}oxy)methyl]pyrrolidin-2-one]
4.6 nM | 1.4 nM | C[C@H]1CNCCN1c1cccc2oc(-c3cnc4ccc(OC[C@@H]5CCC(=O)N5)nn34)cc12 [II-38, (5S)-5-{[(3-{4-[(2S)-2-methylpiperazin-1-yl]-1-benzofuran-2-yl}imidazo[1,2-b]pyridazin-6-yl)oxy]methyl}pyrrolidin-2-one]
1.6 nM | 1.1 nM | COc1ccc2ncc(-c3cc4c(N5CCN[C@H](C)C5)cccc4o3)n2n1 [II-39, 6-methoxy-3-{4-[(3R)-3-methylpiperazin-1-yl]-1-benzofuran-2-yl}imidazo[1,2-b]pyridazine]
